From PMC6272637, “Hepatoprotective Triterpene Saponins from the Roots of Glycyrrhiza inflata” (Molecules, 2015) come the findings set out here.

SMILES strings stand for the structures. “Also recorded” adds a separate entry of the source. Marks after values point to notes of the source that are not given here. Where only a bound is given, the exact number is not on record here.

Experiment [1] deals with primary rat hepatocytes injured by D-GalN. Kind of experiment: Hepatoprotective activity in primary rat hepatocytes injured by D-GalN (AST, LDH levels). The format is cell-based. As to conditions: for AST / LDH: primary rat hepatocytes, 2 mM D-GalN, mean ± SD, n = 3; for AST: model 17.1 ± 2.4, control 6.9 ± 1.7; for LDH: model 253.5 ± 13.5, control 157.4 ± 11.7; for hepatoprotective activity (result in words): primary rat hepatocytes injured by D-GalN, compared to model group or between compounds. Here is the method:
All the separated compounds were assessed for their hepatoprotective activities against the increase of AST and LDH levels in primary rat hepatocytes injured by D-GalN. The maximum nontoxic concentrations of tested compounds on primary rat hepatocytes were in the range of 120–240 μM. […] (Table 2).
Isolated rat hepatocytes were prepared from male Wistar rats by a collagenase perfusion technique as described previously. The D-GalN concentration used for cell culture treatment was previously determined according to a modification of the method of Morikawa et al.. The cultured cells in logarithmic growth phase were made into a single-cell suspension and seeded in 96-well plates (1 × 10^4 cells/well) in the DMEM/F 12 with 2% FBS complete medium for 24 h at 37 °C. Then, the hepatocytes were exposed to 2 mM D-GalN for 2 h to induce hepatotoxocity. The medium with silibin meglumine (as positive drug, purity 95.6%, Hunan Xieli Pharmaceutical Co., Ltd., Zhuzhou, China) and different concentrations of test compounds was mixed in cell medium (final test compounds concentration were 30 μM, 60 μM and 120 μM, respectively), and incubated for 24 h. The obtained reacted supernatant was directly used to detect ALT and AST levels. The control group was a set of cells maintained in culture medium, while the model group was a set of cells maintained in culture medium and treated only with D-GalN. All data are expressed as the mean ± SD of at least three independent experiments as indicated. The test for the paired samples was used to determine statistical difference between parameters. These differences were considered significant for p < 0.05 or 0.01.

The target of a further experiment is phospholipase A2 (PLA2). As to the kind of experiment: Assay for inhibition against PLA2. The format is biochemical. As to conditions: PLA2 enzyme 5 μg/mL, pH 8.2, 40 °C, 30 min, OD 495 nm; three repeats. As for the experimental part: As a regulator associated with the stability of the liver cell membrane, phospholipase A2 (PLA2) is a promising target for hepatoprotective drug development.
The PLA2 inhibitory assays of compounds 1–11 and the positive drug diethylenetriaminepentaacetic acid (Purchased from Aladdin, Los Angeles, CA, USA, purity > 98.0%) were carried out according to the literature. First of all, each tube was added with 1 mL fresh substrate buffer solution (pH = 8.2). After that, 50 μL tested compounds at various concentrations were placed at reaction tube and blank tube, respectively. As for control tube, 50 μL deionized water was instead. Then each tube incubated at 40 °C for 10 minutes. The reaction tube and blank tube were followed by the treatment with PLA2 enzyme (5 μL) at the concentration of 5 μg/mL. Before put them into the incubator at the temperature of 40 °C to react 30 minutes, the content of the tube should be fully blending. The optical density value of each tube was then read in an ELISA plate reader using a wavelength of 495 nm. The IC50 values were calculated from concentration-response curves by means of the GraphPad Prism 5.0 Software (San Diego, CA, USA). Each experiment was repeated three times to get the mean values.

As for `CNCC(O)C(O)C(O)C(O)CO.COc1cc(C2Oc3cc(C4Oc5cc(O)cc(O)c5C(=O)C4O)ccc3OC2CO)ccc1O` (stereo not drawn) [Silibinin Meglumine, reference compound], in experiment [1] (50 μM (positive drug)), the AST is given as 10.3 ± 2.2 ^d U·L^−1 and the LDH is 219.1 ± 10.9 ^d U·L^−1.

What is called IC50 is the point on the concentration scale where inhibition reaches its midpoint. Low readings indicate higher potency, high ones lower potency. With `CC1(C(=O)O)CCC2(C)CCC3(C)C(=CC(=O)C4C5(C)CCC(OC6OC(C(=O)O)C(O)C(O)C6OC6OC(C(=O)O)C(O)C(O)C6O)C(C)(CO)C5CCC43C)C2C1` (stereo not drawn) [Compound 4, licorice-saponin G2], the AST is listed as 14.8 ± 2.9 U·L^−1 in experiment [1] (30 μM compound), 13.7 ± 2.6 ^c U·L^−1 in experiment [1] (60 μM compound) and 12.6 ± 2.8 ^c U·L^−1 in experiment [1] (120 μM compound). Further, the results for the LDH in experiment [1] (30 μM compound), in experiment [1] (60 μM compound) and in experiment [1] (120 μM compound) were 237.2 ± 16.4 U·L^−1, 232.7 ± 25.7 U·L^−1 and 224.9 ± 25.2 ^c U·L^−1, respectively. Further, in experiment [1], the “hepatoprotective activity (result in words)” value (from here on “hepatoprotective activity”) was “notably lowered AST; also recorded: significant hepatoprotective activities”. The compound also gave a concentration for half-maximal inhibition (IC50) at phospholipase A2 (PLA2) of 16.9 ± 0.3 µM.

`CC12CC(OC1=O)C1(C)CCC3(C)C(=CC(=O)C4C5(C)CCC(OC6OC(C(=O)O)C(O)C(O)C6OC6OC(C(=O)O)C(O)C(O)C6O)C(C)(C)C5CCC43C)C1C2` (stereo not drawn) [Compound 5, licorice-saponin E2]: in experiment [1], the “hepatoprotective activity” value was “significantly weaker hepatoprotective activities than the compound 2 and 11”. For the same compound, the IC50 against phospholipase A2 (PLA2) is greater than 50 µM.

`CC1(C(=O)OC2OC(CO)C(O)C(O)C2O)CCC2(C)CCC3(C)C(=CC(=O)C4C5(C)CCC(OC6OC(C(=O)O)C(O)C(O)C6OC6OC(C(=O)O)C(O)C(O)C6O)C(C)(CO)C5CCC43C)C2C1` (stereo not drawn) [Compound 10, licorice-saponin A3] gave an IC50 on phospholipase A2 (PLA2) greater than 50 µM.

As to `CC12CCC(CO)(C(=O)O)CC1C1=CC(=O)C3C4(C)CCC(OC5OC(C(=O)O)C(O)C(O)C5OC5OC(C(=O)O)C(O)C(O)C5O)C(C)(C)C4CCC3(C)C1(C)CC2` [Compound 1, 3β-O-[β-D-glucuronopyranosyl-(1→2)-β-D-glucuronopyranosyl]-29-hydroxyglycyrrhetic acid], the IC50 at phospholipase A2 (PLA2) was greater than 50 µM.

On to `CC12CCC3(C)C(=CC(=O)C4C5(C)CCC(OC6OC(C(=O)O)C(O)C(O)C6OC6OC(C(=O)O)C(O)C(O)C6O)C(C)(C)C5CCC43C)C1CC(C)(C(=O)O)C(O)C2` (stereo not drawn) [Compound 2, macedonoside A], for which the AST in experiment [1] (30 μM compound) is 14.6 ± 3.1 U·L^−1; in experiment [1] (60 μM compound), 13.1 ± 2.1 ^c U·L^−1; in experiment [1] (120 μM compound), 11.2 ± 1.9 ^d U·L^−1. The results for the LDH in experiment [1] (30 μM compound), in experiment [1] (60 μM compound) and in experiment [1] (120 μM compound) were 231.0 ± 18.3 ^c U·L^−1, 213.7 ± 19.6 ^d U·L^−1 and 215.9 ± 8.2 ^d U·L^−1, respectively. The “hepatoprotective activity” value in experiment [1] is listed as “notably lowered AST; also recorded: significant hepatoprotective activities”. Also, the IC50 on phospholipase A2 (PLA2) stood at 6.9 ± 0.5 µM.

`CC(=O)OC1CC(C)(C=O)CC2C3=CC(=O)C4C5(C)CCC(OC6OC(C(=O)O)C(O)C(O)C6OC6OC(C(=O)O)C(O)C(O)C6O)C(C)(C)C5CCC4(C)C3(C)CCC12C` (stereo not drawn) [Compound 9, 22β-acetoxyglycyrrhaldehyde] came in with an IC50 against phospholipase A2 (PLA2) greater than 50 µM.

On to `CC(=O)OC1CC(C)(C(=O)O)CC2C3=CC(=O)C4C5(C)CCC(OC6OC(C(=O)O)C(O)C(O)C6OC6OC(C(=O)O)C(O)C(O)C6O)C(C)(C)C5CCC4(C)C3(C)CCC12C` (stereo not drawn) [Compound 6, 22β-acetoxyglycyrrhizin], for which the AST was 16.5 ± 2.2 U·L^−1 in experiment [1] (30 μM compound), 14.6 ± 3.0 U·L^−1 in experiment [1] (60 μM compound) and 13.2 ± 2.7 ^c U·L^−1 in experiment [1] (120 μM compound). The figures for the LDH in experiment [1] (30 μM compound), in experiment [1] (60 μM compound) and in experiment [1] (120 μM compound) were 242.8 ± 15.2 U·L^−1, 228.7 ± 14.0 ^c U·L^−1 and 221.7 ± 19.5 ^d U·L^−1, respectively. In addition, the “hepatoprotective activity” value in experiment [1] is given as “notably lowered AST; also recorded: significant hepatoprotective activities”. Further, 27.1 ± 0.9 µM corresponded to half-maximal inhibition on phospholipase A2 (PLA2) (IC50).

As to `CC1(C(=O)O)CCC2(C)CCC3(C)C(=CC(=O)C4C5(C)CCC(OC6OC(C(=O)O)C(O)C(O)C6OC6OC(C(=O)O)C(O)C(O)C6O)C(C)(CO)C5CCC43C)C2C1` [Compound 3, 3β-O-[β-D-glucuronpyranosyl-(1→2)-β-D-glucuron-pyranosyl]-24-hydroxy-18α-glycyrrhetic acid], the AST in experiment [1] (30 μM compound) is given as 13.3 ± 2.9 ^c U·L^−1; in experiment [1] (60 μM compound) it was 12.9 ± 3.2 ^d U·L^−1; in experiment [1] (120 μM compound), 10.8 ± 2.8 ^d U·L^−1. Further, the LDH in experiment [1] (30 μM compound) was 224.6 ± 21.4 ^c U·L^−1; in experiment [1] (60 μM compound), 208.6 ± 16.0 ^d U·L^−1; in experiment [1] (120 μM compound), 200.7 ± 15.1 ^d U·L^−1. The “hepatoprotective activity” value in experiment [1] is “notably lowered AST; also recorded: higher activity than compound 4; also recorded: significant hepatoprotective activities”. Besides, at phospholipase A2 (PLA2), the IC50 is 3.6 ± 0.3 µM.

The compound `CC12CC(OC1=O)C1(C)CCC3(C)C(=CC(=O)C4C5(C)CCC(OC6OC(C(=O)O)C(O)C(O)C6OC6OC(C(=O)O)C(O)C(O)C6O)C(C)(CO)C5CCC43C)C1C2` (stereo not drawn) [Compound 8, 24-hydroxylicorice-saponin E2] had an IC50 at phospholipase A2 (PLA2) greater than 50 µM.

For the compound `O=C(O)CN(CCN(CC(=O)O)CC(=O)O)CCN(CC(=O)O)CC(=O)O` [Diethylenetriaminepentaacetic acid, reference compound], inhibition at phospholipase A2 (PLA2) was half-maximal at 1.8 ± 0.1 µM (IC50).

Turning to `CC1(C)C(OC2OC(C(=O)O)C(O)C(O)C2OC2OC(C(=O)O)C(O)C(O)C2O)CCC2(C)C1CCC1(C)C2C(=O)C=C2C3CC4(C(=O)O)CC(OC4=O)C3(C)CCC21C` (stereo not drawn) [Compound 7, uralsaponin D], the “hepatoprotective activity” value in experiment [1] is “significantly weaker hepatoprotective activities than the compound 2 and 11”. Further, inhibition on phospholipase A2 (PLA2) was half-maximal at 32.2 ± 0.5 µM (IC50).

On to `CC1(C)[C@@H](O[C@H]2O[C@H](C(=O)O)[C@@H](O)[C@H](O)[C@H]2O[C@@H]2O[C@H](C(=O)O)[C@@H](O)[C@H](O)[C@H]2O)CC[C@]2(C)[C@H]3C(=O)C=C4[C@@H]5C[C@@](C)(C(=O)O)CC[C@]5(C)CC[C@@]4(C)[C@]3(C)CC[C@@H]12` [Compound 11, glycyrrhizin], for which the AST is 14.1 ± 2.1 ^c U·L^−1 in experiment [1] (30 μM compound), 13.0 ± 2.2 ^c U·L^−1 in experiment [1] (60 μM compound) and 11.6 ± 1.8 ^d U·L^−1 in experiment [1] (120 μM compound). Further, the LDH is listed as 236.3 ± 9.4 ^c U·L^−1 in experiment [1] (30 μM compound), 219.1 ± 19.3 ^d U·L^−1 in experiment [1] (60 μM compound) and 207.8 ± 21.9 ^d U·L^−1 in experiment [1] (120 μM compound). Moreover, in experiment [1], the “hepatoprotective activity” value was “notably lowered AST; also recorded: stronger activity than 1; also recorded: significant hepatoprotective activities”. Besides, on phospholipase A2 (PLA2), the IC50 stood at 9.3 ± 0.8 µM.
